What was measured:
Assay type in all cases: in vivo
[1] = Sensory test (limiting method): enhancing the sourness of acid sugar solution; set-up: key: (equivalent citric acid content / citric acid content with flavone) × 100; conditions: citric acid 1.000 (g), flavone derivative (I) 0.00001 (g), 8 panellers; for Value of enhancing the sourness Ascending system: ascending system (from low concentration); for Value of enhancing the sourness Descending system: descending system (from high concentration)
Experimental: Compounds 1 to 11 of the flavone derivative (I) were used as a taste modifier to prepare acid sugar solution having compositions as follows:
As a control, 21 types of acid sugar solutions are used. In the control, the flavone derivative (I) is removed from the above composition and the content of citric acid is varied from 1.000 g to 1.500 g by 0.025 g.
Sensory tests were carried out by 8 trained panellers in accordance with a limiting method described in the Hand Book of Sensory evaluation, edited by Research Committee of sensory evaluation, Union of Japanese Scientists and Engineers, p.398 (1973) in use of acid sugar solutions containing respective flavone derivatives (I) and another acid sugar solutions having a various content of citric acid.
As for the content of citric acid, two types sensory tests were conducted, one was an ascending system (testing from solution with low concentration) and another was a descending system (testing from solution with high concentration).
The sensory evaluation was made by a value of enhancing the sourness. The value of enhancing the sourness was calculated by the following formula based on the content of citric acid in acid sugar solutions with varied concentration of citric acid, which has an equivalent stimulation with an acid sugar solution containing the flavone derivative (I) Value of enhancing the sourness = (content of citric acid in acid sugar solution sensed as an equivalent stimulation/content of citric acid in acid sugar solution containing the flavone derivative (I)) x 100 [formula]

[2] = Sensory test: refreshness, its continuity and quality of taste (hard candy); conditions: 0.1 (w/w)% flavor composition D (0.0001 (g) Compound 1) vs C, 8 panellers
Experimental: Compound 1 of the flavone derivative (I) was used as a taste modifier. Hard candy containing the above flavor composition C (control) or D (containing the flavone derivative (I)) was prepared.
First, 60 g of sugar, 40 g of thin malt syrup and 20 g of water were mixed and heated up to about 150°C to boil down, and then allowed to cool to about 120 °C while stirring. Next, the above flavor composition C was added thereto such that 0.1 (w/w)% of the flavor composition was contained and it is poured into a box, thereby preparing flavone derivative (I) free hard candy.
Alternatively, the flavor composition D was used in stead of the flavor composition C to prepare flavone derivative (I)-containing hard candy in accordance with the same method.
Sensory tests for obtained hard candy were carried out by 8 panellers comprised of 6 males and 2 females at the age from 20 to 40.

[3] = Sensory test: body and deliciousness (soft candy); conditions: 0.00001 (g) Compound 1, 8 panellers
Experimental: Compound 1 of the flavone derivative (I) was used as a taste modifier. Gelatin which was swelled in advance with a part of water, followed by heating to dissolve, granulated sugar, thick malt syrup and the remaining water was mixed, followed by boiling down to 130°C. Then, fondant paste, vegetable oils and fats, emulsifier, colorant and the flavone derivative (I) were added thereto, thereby preparing flavone derivative (I)-containing soft candy. Alternatively, flavone derivative (I) free soft candy was prepared as a control by the same method.
Sensory tests for obtained soft candy were conducted by 8 panellers comprised of 6 males and 2 females at the age from 20 to 40.

[4] = Five points evaluation test: saltiness and savor modifying effect (salted squid); set-up: key: five-point scale; untreated standard scored 2; conditions: average points of 5 panellers (2: no changes)
Experimental: Compound 5 of the flavone derivative (I) was used as a taste modifier. To commercially available salted squids, 1, 0.1 and 0.01 ppm of the flavone derivative (I) was added respectively to prepare samples. Sensory tests were carried out for the saltiness and the savor of salted squid. Flavone derivative (I) free salted squids were used as standards.
(§1) The sensory tests were conducted by 5 trained panellers to examine saltiness modifying effect (so called saltiness adapting effect) and savor modifying effect.
(§2) Each sample solution was evaluated assuming that the standard solution has the point of 2.

[5] = Five points evaluation test: saltiness and brackish taste modifying effect (soy sauce with low salt concentration); set-up: key: five-point scale; additive-free standard solution scored 2; conditions: average points of 5 panellers (2: no changes)
Experimental: Compound 5 of the flavone derivative (I) was used as a taste modifier. To commercially available soy sauce with low salt concentration (salt concentration: 7 w/w%), 1, 0.1 and 0.01 ppm of the flavone derivative (I) was added respectively to prepare sample solutions. Sensory tests were carried out for the respective concentrations of sample solutions and 1/2 diluted solutions thereof. Flavone derivative (I) free solutions were used as standard solutions.
The sensory tests were conducted by 5 trained panellers to examine saltiness modifying effect (so called saltiness adapting effect) and brackish taste modifying effect.
as §2

[6] = Sensory test: body and deliciousness (bread); conditions: 0.00002 (g) Compound 5, 8 panellers
Experimental: Compound 5 of the flavone derivative (I) was used as a taste modifier. Strong flour, yeast food, bread yeast and water were mixed and fermented for four hours at 28°C. Dough materials comprising strong flour, sugar, powdered skim milk, shortening and water, and the flavone derivative (I) were added thereto and subjected to dough process, followed by baking for 25 minutes at 220°C, thereby preparing bread. Flavone derivative (I) free bread was prepared in the same manner as a control.
Sensory tests for obtained bread were conducted by 8 panellers comprised of 6 males and 2 females at the age from 20 to 40.

[7] = Five points evaluation test: saltiness and savor modifying effect (ham made of pork loin); conditions: Ham made of pork loint, average points of 5 panellers (2: no changes)
Experimental: Compound 6 of the flavone derivative (I) were used as a taste modifier. Ham made of pork loin was prepared by a general method, in use of pickle solutions containing the flavone derivative (I) in the amount of 1, 0.1 and 0.01 ppm and flavone derivative (I) free standard pickle solution, respectively. Sensory tests were carried out for modifying effects of the saltiness and the savor.
as §1, §2
The pickle solution containing the above was prepared and cooled for a night. Then, raw meat (native pork) was molded and the pickle solution was injected at a rate of 120% to the molded meat. After injection, the molded meat was tumbled with tumbler (12 R. P. M./60 minutes) and salted for a night. It was packed in a container and subjected to dry at 60°C for 60 minutes, smoke at 70°C for 40 minutes and steam at 78°C (the temperature of the center raised to 70°C) to finish the processing. The processed meat was cooled for a night and evaluated.

[8] = Sensory test: refreshness, its continuity and quality of taste (mouth refreshing agent); conditions: 0.1 (w/w)% flavor composition F (0.00005 (g) Compound 9) vs E, 8 panellers
Experimental: Compound 9 of the flavone derivative (I) was used as a taste modifier. Mouth refreshing agent comprising the above flavor composition E (control) or F (containing the flavone derivative (I)) was prepared.
First, 30 g of ethanol, 10 g of glycerin, 2 g of polyoxyethylene hardened castor oil, 0.1 g of sodium saccharin, 0.005 g of chlorhexidine and 58 g of water were mixed, and the above flavor composition E was added thereto such that 0.1 (w/w)% of the flavor compositon was contained, thereby preparing flavone derivative (I) free mouth refreshing agent. Alternatively, the flavor composition F was used in stead of the flavor composition E to prepare flavone derivative (I)-containing mouth refreshing agent.
Sensory tests for obtained mouth refreshing agents were carried out by 8 panellers comprised of 6 males and 2 females at the age from 20 to 40.

[9] = 0.01 ppm, Soy sauce 1/2 dilution
[10] = 0.01 ppm, Soy sauce Undiluted solution
[11] = 0.10 ppm, Soy sauce 1/2 dilution
[12] = 0.10 ppm, Soy sauce Undiluted solution
[13] = 1.00 ppm, Soy sauce 1/2 dilution
[14] = 1.00 ppm, Soy sauce Undiluted solution

COc1ccc(-c2cc(=O)c3c(OC)c(OC)c(OC)cc3o2)cc1OC [Compound 1, 3',4',5,6,7-pentamethoxyflavone]
Value of enhancing the sourness Ascending system [1]: 119 | Value of enhancing the sourness Descending system [1]: 121 | Continuity of the refreshness: Those who sensed D additive is better [2]: 8 number of people | Continuity of the refreshness: Those who sensed no difference [2]: 0 number of people | Quality of taste: Those who sensed D additive is better [2]: 6 number of people | Quality of taste: Those who sensed no difference [2]: 2 number of people | Refreshness: Those who sensed D additive is better [2]: 7 number of people | Refreshness: Those who sensed no difference [2]: 1 number of people | Body: Those who sensed no difference [3]: 1 number of people | Body: Those who sensed the flavone derivative (I) additive is better [3]: 7 number of people | Deliciousness: Those who sensed no difference [3]: 0 number of people | Deliciousness: Those who sensed the flavone derivative (I) additive is better [3]: 8 number of people | Quality of taste: Those who sensed no difference [3]: 0 number of people | Quality of taste: Those who sensed the flavone derivative (I) additive is better [3]: 8 number of people

COc1cc(OC)c2c(=O)cc(-c3ccc(OC)c(OC)c3)oc2c1 [Compound 5, 3',4',5,7-tetramethoxyflavone]
Saltiness and Savor Modifying Effect: Saltiness ([4]; 0.01 ppm): 3.0 | Saltiness and Savor Modifying Effect: Savor ([4]; 0.01 ppm): 3.6 | Saltiness and Savor Modifying Effect: Total evaluation ([4]; 0.01 ppm): 3.4 | Saltiness and Savor Modifying Effect: Saltiness ([4]; 0.10 ppm): 3.4 | Saltiness and Savor Modifying Effect: Savor ([4]; 0.10 ppm): 3.8 | Saltiness and Savor Modifying Effect: Total evaluation ([4]; 0.10 ppm): 3.6 | Saltiness and Savor Modifying Effect: Saltiness ([4]; 1.00 ppm): 3.8 | Saltiness and Savor Modifying Effect: Savor ([4]; 1.00 ppm): 4.0 | Saltiness and Savor Modifying Effect: Total evaluation ([4]; 1.00 ppm): 3.8 | Value of enhancing the sourness Ascending system [1]: 118 | Value of enhancing the sourness Descending system [1]: 121 | Brackish Taste Modifying Effect [5, 9]: 3.6 | Saltiness Modifying Effect [5, 9]: 3.8 | Brackish Taste Modifying Effect [5, 10]: 3.4 | Saltiness Modifying Effect [5, 10]: 3.6 | Brackish Taste Modifying Effect [5, 11]: 4.0 | Saltiness Modifying Effect [5, 11]: 4.0 | Brackish Taste Modifying Effect [5, 12]: 3.4 | Saltiness Modifying Effect [5, 12]: 3.6 | Brackish Taste Modifying Effect [5, 13]: 4.0 | Saltiness Modifying Effect [5, 13]: 4.4 | Brackish Taste Modifying Effect [5, 14]: 4.0 | Saltiness Modifying Effect [5, 14]: 4.0 | Body: Those who sensed no difference [6]: 1 number of people | Body: Those who sensed the flavone derivative (I) additive is better [6]: 7 number of people | Deliciousness: Those who sensed no difference [6]: 2 number of people | Deliciousness: Those who sensed the flavone derivative (I) additive is better [6]: 6 number of people | Quality of taste: Those who sensed no difference [6]: 1 number of people | Quality of taste: Those who sensed the flavone derivative (I) additive is better [6]: 7 number of people

COc1ccc(-c2cc(=O)c3c(OC)cc(OC)c(OC)c3o2)cc1 [Compound 6, 5,7,8,4'-tetramethoxyflavone]
Saltiness and Savor Modifying Effect: Saltiness ([7]; 0.10 ppm in pickle solution): 3.0 | Saltiness and Savor Modifying Effect: Savor ([7]; 0.10 ppm in pickle solution): 3.0 | Saltiness and Savor Modifying Effect: Total evaluation ([7]; 0.10 ppm in pickle solution): 3.0 | Saltiness and Savor Modifying Effect: Saltiness ([7]; 1.00 ppm in pickle solution): 3.4 | Saltiness and Savor Modifying Effect: Savor ([7]; 1.00 ppm in pickle solution): 3.4 | Saltiness and Savor Modifying Effect: Total evaluation ([7]; 1.00 ppm in pickle solution): 3.4 | Value of enhancing the sourness Ascending system [1]: 120 | Value of enhancing the sourness Descending system [1]: 123

COc1ccc(-c2cc(=O)c3c(O)c(OC)c(OC)c(OC)c3o2)cc1 [Compound 9, 5-hydroxy-4',6,7,8-tetramethoxyflavone]
Value of enhancing the sourness Ascending system [1]: 117 | Value of enhancing the sourness Descending system [1]: 119 | Continuity of refreshness: Those who sensed F additive is better [8]: 8 number of people | Continuity of refreshness: Those who sensed no difference [8]: 0 number of people | Quality of taste: Those who sensed F additive is better [8]: 6 number of people | Quality of taste: Those who sensed no difference [8]: 2 number of people | Refreshness: Those who sensed F additive is better [8]: 7 number of people | Refreshness: Those who sensed no difference [8]: 1 number of people

Reference: patent EP0605261B1, “Use of a flavone derivative as taste modifier and a method of modifying taste” (SAN-EI GEN F.F.I., INC., priority 1992, dated 1994)
